According to PubChem BioAssay AID330 (DTP/NCI, 2004):
Where “and” joins values, the source holds several entries; their conditions need not be identical. Equal values may be shown once. Toxic doses and inconclusive results are not listed. Rule for the calls: active = survival T/C of 150% or more; inactive = T/C below 125% in these data.

Tested on: P388 leukemia ip, CD2F1 mice, survival T/C
Assay: NCI In Vivo Anticancer Drug Screen. Data for tumor model P388 Leukemia (intraperitoneal) in CD2F1 (CDF1) mice
Details: endpoint: median survival time, higher = longer survival
How it was run: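 Mice carrying the transplanted tumor received test compound or vehicle. Survival was recorded in each group, and the value is the treated-group measurement divided by that of the vehicle-treated control group.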

[1] = dose: 50.0 mg/kg/injection, schedule: Q01DX009 (ip), vehicle: saline
[2] = dose: 100.0 mg/kg/injection, schedule: Q01DX009 (ip), vehicle: saline
[3] = dose: 200.0 mg/kg/injection, schedule: Q01DX009 (ip), vehicle: saline
[4] = dose: 25.0 mg/kg/injection, schedule: Q01DX009 (ip), vehicle: saline with Tween-80
[5] = dose: 25.0 mg/kg/injection, schedule: Q04DX003 (ip), vehicle: saline with Tween-80
[6] = dose: 50.0 mg/kg/injection, schedule: Q04DX003 (ip), vehicle: saline with Tween-80
[7] = dose: 100.0 mg/kg/injection, schedule: Q04DX003 (ip), vehicle: saline with Tween-80
[8] = dose: 12.5 mg/kg/injection, schedule: Q01DX009 (ip), vehicle: saline
[9] = dose: 25.0 mg/kg/injection, schedule: Q01DX009 (ip), vehicle: saline
[10] = dose: 100.0 mg/kg/injection, schedule: Q01DX009 (ip), vehicle: Klucel (hydroxypropylcellulose) (HPC)
[11] = dose: 200.0 mg/kg/injection, schedule: Q01DX009 (ip), vehicle: Klucel (hydroxypropylcellulose) (HPC)
[12] = dose: 400.0 mg/kg/injection, schedule: Q01DX009 (ip), vehicle: Klucel (hydroxypropylcellulose) (HPC)
[13] = dose: 50.0 mg/kg/injection, schedule: Q01DX005 (ip), vehicle: saline with Tween-80
[14] = dose: 100.0 mg/kg/injection, schedule: Q01DX005 (ip), vehicle: saline with Tween-80
[15] = dose: 200.0 mg/kg/injection, schedule: Q01DX005 (ip), vehicle: saline with Tween-80

Measured: T/C

O=C(Nc1cc(Cl)ccc1Cl)Oc1ccc(Cl)cc1C(=O)c1ccccc1
inactive: [1] 102 % of control | [2] 97 % of control | [3] 89 % of control

O=c1c2ccc(Cl)cc2nc2n1OCC2
inactive: dose: 100.0 mg/kg/injection, schedule: Q01DX001 (ip), vehicle: Klucel (hydroxypropylcellulose) (HPC) 106 % of control | dose: 200.0 mg/kg/injection, schedule: Q01DX001 (ip), vehicle: Klucel (hydroxypropylcellulose) (HPC) 100 % of control | dose: 400.0 mg/kg/injection, schedule: Q01DX001 (ip), vehicle: Klucel (hydroxypropylcellulose) (HPC) 101 % of control

COC(=O)C1CC(C)C1(OC)OC (stereo unspecified)
inactive: dose: 60.0 mg/kg/injection, schedule: Q01DX005 (ip), vehicle: saline 106 % of control | dose: 120.0 mg/kg/injection, schedule: Q01DX005 (ip), vehicle: saline 107 % of control | dose: 240.0 mg/kg/injection, schedule: Q01DX005 (ip), vehicle: saline 101 % of control

COC1CC(=O)C2(C)C3CCC4(C)C(C(C)C5CC(C)=C(CO)C(=O)O5)CCC4C3CC3OC32C1O (stereo unspecified)
inactive: dose: 10.12 mg/kg/injection, schedule: Q01DX009 (ip), vehicle: saline + alcohol 105 % of control | dose: 20.25 mg/kg/injection, schedule: Q01DX009 (ip), vehicle: saline + alcohol 96 % of control | dose: 40.5 mg/kg/injection, schedule: Q01DX009 (ip), vehicle: saline + alcohol 94 % of control

NC(CSC(c1ccccc1)(c1ccccc1)c1ccccc1)C(=O)NCC(=O)O (stereo unspecified)
inactive: dose: 600.0 mg/kg/injection, schedule: Q01DX009 (ip), vehicle: saline with Tween-80 122 % of control

C=CN=NNc1ccc(Cl)cc1
inactive: dose: 100.0 mg/kg/injection, schedule: Q04DX003 (ip), vehicle: saline + Tween-80 + alcohol 109 % of control | dose: 200.0 mg/kg/injection, schedule: Q04DX003 (ip), vehicle: saline + Tween-80 + alcohol 108 % of control | dose: 400.0 mg/kg/injection, schedule: Q04DX003 (ip), vehicle: saline + Tween-80 + alcohol 117 % of control

CN1CCc2c3n(c4ccccc24)C(=O)CCC31 (stereo unspecified)
inactive: dose: 6.25 mg/kg/injection, schedule: Q01DX009 (ip), vehicle: saline with Tween-80 120 % of control | dose: 12.5 mg/kg/injection, schedule: Q01DX009 (ip), vehicle: saline with Tween-80 120 % of control | [4] 120 % of control

CCOC(=O)C1(C)Sc2ccccc2N=C1c1ccccc1 (stereo unspecified)
inactive: dose: 60.0 mg/kg/injection, schedule: Q01DX005 (ip), vehicle: saline + Tween-80 + alcohol 98 % of control | dose: 120.0 mg/kg/injection, schedule: Q01DX005 (ip), vehicle: saline + Tween-80 + alcohol 93 % of control | dose: 240.0 mg/kg/injection, schedule: Q01DX005 (ip), vehicle: saline + Tween-80 + alcohol 89 % of control

C/C(=N\N=C(\[Se])N1CCN(c2ccccn2)CC1)c1ccccn1
inactive: dose: 12.5 mg/kg/injection, schedule: Q04DX003 (ip), vehicle: saline with Tween-80 108 % of control | [5] 109 % of control and 116 % of control | [6] 113 % of control | [7] 115 % of control and 124 % of control | dose: 200.0 mg/kg/injection, schedule: Q04DX003 (ip), vehicle: saline with Tween-80 115 % of control

O=C1OCC2=C1CN1CCc3cc4c(cc3C1C2)OCO4 (stereo unspecified)
inactive: dose: 0.63 mg/kg/injection, schedule: Q01DX009 (ip), vehicle: distilled water + Tween-80 94 % of control | dose: 1.25 mg/kg/injection, schedule: Q01DX009 (ip), vehicle: distilled water + Tween-80 103 % of control | dose: 2.5 mg/kg/injection, schedule: Q01DX009 (ip), vehicle: distilled water + Tween-80 112 % of control | dose: 5.0 mg/kg/injection, schedule: Q01DX009 (ip), vehicle: distilled water + Tween-80 103 % of control | dose: 10.0 mg/kg/injection, schedule: Q01DX009 (ip), vehicle: distilled water + Tween-80 103 % of control | dose: 20.0 mg/kg/injection, schedule: Q01DX009 (ip), vehicle: distilled water + Tween-80 94 % of control

NC1CCNC(O)[N-]1.NC1CCNC(O)[N-]1.[Cl][Pd][Cl] (stereo unspecified)
inactive: dose: 60.0 mg/kg/injection, schedule: Q01DX005 (ip), vehicle: Klucel (hydroxypropylcellulose) (HPC) 97 % of control | dose: 120.0 mg/kg/injection, schedule: Q01DX005 (ip), vehicle: Klucel (hydroxypropylcellulose) (HPC) 103 % of control | dose: 240.0 mg/kg/injection, schedule: Q01DX005 (ip), vehicle: Klucel (hydroxypropylcellulose) (HPC) 112 % of control

COC(=O)NC(=O)CCC(=O)O
inactive: [8] 104 % of control | [9] 97 % of control | [1] 100 % of control and 103 % of control

CC1/C(=N/Nc2ccc([N+](=O)[O-])cc2)CC2C3(C)CCC2(C(C)C(=O)O)C(=O)C13 (stereo unspecified)
inactive: dose: 25.0 mg/kg/injection, schedule: Q04DX003 (ip), vehicle: Klucel (hydroxypropylcellulose) (HPC) 92 % of control | dose: 50.0 mg/kg/injection, schedule: Q04DX003 (ip), vehicle: Klucel (hydroxypropylcellulose) (HPC) 94 % of control | dose: 100.0 mg/kg/injection, schedule: Q04DX003 (ip), vehicle: Klucel (hydroxypropylcellulose) (HPC) 88 % of control and 94 % of control | dose: 400.0 mg/kg/injection, schedule: Q04DX003 (ip), vehicle: Klucel (hydroxypropylcellulose) (HPC) 90 % of control

CCC(=O)O[C@H]1CC[C@H]2[C@@H]3CC[C@H]4CCCC[C@]4(C)[C@H]3CC[C@]12C
inactive: [10] 90 % of control | [11] 95 % of control | [12] 105 % of control

COc1ccc(NC(=O)CCC(=O)CC(=O)c2ccc(C)cc2)cc1
inactive: dose: 60.0 mg/kg/injection, schedule: Q01DX005 (ip), vehicle: saline with Tween-80 105 % of control | dose: 120.0 mg/kg/injection, schedule: Q01DX005 (ip), vehicle: saline with Tween-80 106 % of control | dose: 240.0 mg/kg/injection, schedule: Q01DX005 (ip), vehicle: saline with Tween-80 101 % of control

O=C(c1ccccc1)C(O)O
inactive: [5] 103 % of control | [6] 106 % of control | [7] 106 % of control and 109 % of control

CC(=O)/C=N/OC(=O)c1ccccc1
inactive: dose: 100.0 mg/kg/injection, schedule: Q04DX002 (ip), vehicle: saline with Tween-80 104 % of control | dose: 200.0 mg/kg/injection, schedule: Q04DX002 (ip), vehicle: saline with Tween-80 99 % of control

O=C(O)c1cc(-c2cccc3ccccc23)nc2ccccc12
inactive: [13] 94 % of control | [14] 94 % of control | [15] 94 % of control

COc1ccc(-c2nnc3cc(C)n4nnnc4n23)cc1OC
inactive: dose: 50.0 mg/kg/injection, schedule: Q01DX005 (ip), vehicle: Klucel (hydroxypropylcellulose) (HPC) 100 % of control | dose: 100.0 mg/kg/injection, schedule: Q01DX005 (ip), vehicle: Klucel (hydroxypropylcellulose) (HPC) 96 % of control | dose: 200.0 mg/kg/injection, schedule: Q01DX005 (ip), vehicle: Klucel (hydroxypropylcellulose) (HPC) 94 % of control

COC1/C=C\OC2(C)Oc3c(C)c(O)c4c(O)c(c(CN(C)CCO)c(O)c4c3C2=O)NC(=O)/C(C)=C\C=C/C(C)C(O)C(C)C(O)C(C)C(OC(C)=O)C1C (stereo unspecified)
inactive: dose: 12.5 mg/kg/injection, schedule: Q01DX009 (ip), vehicle: Klucel (hydroxypropylcellulose) (HPC) 86 % of control | dose: 25.0 mg/kg/injection, schedule: Q01DX009 (ip), vehicle: Klucel (hydroxypropylcellulose) (HPC) 117 % of control | dose: 50.0 mg/kg/injection, schedule: Q01DX009 (ip), vehicle: Klucel (hydroxypropylcellulose) (HPC) 118 % of control | [10] 111 % of control | [11] 104 % of control | [12] 96 % of control

FC(F)(F)c1ccc(Cl)c(NC(=S)SC2CCCCC2)c1
inactive: [1] 100 % of control | [2] 100 % of control | [3] 97 % of control

COC1=C(N)C(=O)c2nc(-c3ccccc3N)ccc2C1=O
inactive: [1] 121 % of control | [2] 120 % of control

CC(=O)OC1COC(Nc2[nH]c(=O)n(C)c(=O)c2C(=O)CCl)C(OC(C)=O)C1OC(C)=O (stereo unspecified)
inactive: [13] 104 % of control | [14] 96 % of control | [15] 93 % of control

O=C(O)CN(CCO)CCN(CC(=O)O)CC(=O)O
inactive: [8] 100 % of control | [4] 100 % of control | [9] 104 % of control | dose: 50.0 mg/kg/injection, schedule: Q01DX009 (ip), vehicle: saline with Tween-80 95 % of control | [1] 95 % of control | dose: 100.0 mg/kg/injection, schedule: Q01DX009 (ip), vehicle: saline with Tween-80 100 % of control | [2] 98 % of control
